Measurements taken from US10961202B2, “Bis-benzimidazole compounds and methods of using the same” (THE SCRIPPS RESEARCH INSTITUTE, priority 2017, dated 2021).
pIC50: −log10 of the molar value.

test system: r(CUG)12-MBNL1 complex; assay: Inhibition of the r(CUG)12-MBNL1 complex measured by TR-FRET; type: biochemical; details: Table L; 80 nM RNA, 60 nM MBNL1-His6

pIC50 | Compound
5.36 | COC(=O)[C@H](CCCNC(=N)N)NC(=O)c1ccc2nc(-c3ccc(-c4nc5ccc(C(=O)N[C@@H](CCCNC(=N)N)C(=O)OC)cc5[nH]4)cc3)[nH]c2c1 [Compound 39]
4.26 | CC(C)(C)OC(=O)N1CCN=C1Nc1ccc2[nH]c(-c3ccc(-c4nc5cc(N)ccc5[nH]4)cc3)nc2c1 [Compound 23, tert-butyl 2-((2-(4-(5-amino-1H-benzo[d]imidazol-2-yl)phenyl)-1H-benzo[d]imidazol-5-yl)amino)-4,5-dihydro-1H-imidazole-1-carboxylate]
< 3.70 | c1cn(-c2ccc3nc(-c4ccc(-c5nc6ccc(-n7ccnc7)cc6[nH]5)cc4)[nH]c3c2)cn1 [Compound 20, 1,4-bis(6-(1H-imidazol-1-yl)-1H-benzo[d]imidazol-2-yl)benzene]
5.21 | N=C(N)Nc1ccc2nc(-c3ccc(-c4ccc(-c5nc6ccc(NC(=N)N)cc6[nH]5)cc4)cc3)[nH]c2c1 [Compound 81]
5.18 | N=C(N)c1ccc2nc(-c3ccc(-c4nc5ccc(C(=N)N)cc5[nH]4)cc3)[nH]c2c1 [Compound 26, 2,2′-(1,4-phenylene)bis(1H-benzo[d]imidazole-6-carboximidamide) acetate]
5.02 | C#CCCCCN(C)CCNC(=O)c1ccc(-c2nc3cc(-c4ccc5[nH]c(-c6ccc(C(=O)NCCN(C)C)cc6)nc5c4)ccc3[nH]2)cc1 [Compound 114, N-(2-(dimethylamino)ethyl)-4-(2′-(4-((2-(hex-5-yn-1-yl(methyl)amino)ethyl)carbamoyl)phenyl)-1H,1′H-[5,5′-bibenzo[d]imidazol]-2-yl)benzamide]

same assay, conditions: Table M; 80 nM RNA, 60 nM MBNL1-His6

pIC50 | Compound
< 3.70 | CN(C)CCCOc1ccc2nc(-c3ccc(-c4nc5ccc(OCCCC(=O)O)cc5[nH]4)cc3)[nH]c2c1 [Compound 248, 4-((2-(4-(5-(3-(dimethylamino)propoxy)-1H-benzo[d]imidazol-2-yl)phenyl)-1H-benzo[d]imidazol-5-yl)oxy)butanoic acid]
< 3.70 | CN(C)CCCOc1ccc(-c2nc3cc(-c4ccc5[nH]c(-c6ccc(C(=O)NCCCn7cc(CCCNC(=O)c8ccc(C9=Nc%10cc(-c%11ccc%12[nH]c(-c%13ccc(C(=O)NCCN(C)C)cc%13)nc%12c%11)ccc%10C9)cc8)nn7)cc6)nc5c4)ccc3[nH]2)cc1 [Compound 457]
4.43 | COCCOCCOc1cc(-c2nc3ccc(OCCCN(C)C)cc3[nH]2)ccc1-c1nc2ccc(OCCCN(C)C)cc2[nH]1 [Compound 260]
4.35 | CN(C)CCCOc1ccc(-c2nc3cc(-c4ccc5[nH]c(-c6ccc(C(=O)NCCCn7cc(-c8cccc(NC(=O)c9ccc(-c%10nc%11cc(-c%12ccc%13[nH]c(-c%14ccc(C(=O)NCCN(C)C)cc%14)nc%13c%12)ccc%11[nH]%10)cc9)c8)nn7)cc6)nc5c4)ccc3[nH]2)cc1 [Compound 456]
5.54 | CN(C)CCNC(=O)c1ccc(-c2nc3ccc(-c4ccc5nc(-c6ccc(C(=O)NC7CCC(CC8CCC(NC(=O)c9ccc(-c%10nc%11ccc(-c%12ccc%13nc(-c%14ccc(C(=O)NCCN(C)C)cc%14)[nH]c%13c%12)cc%11[nH]%10)cc9)CC8)CC7)cc6)[nH]c5c4)cc3[nH]2)cc1 (stereo not shown) [Compound 428]
4.34 | CN(C)CCCOc1ccc2nc(-c3ccc(-c4nc5ccc(OCCCN(C)C)cc5[nH]4)c(OCCN(C)C)c3)[nH]c2c1 [Compound 263, 3,3′-((2,2′-(2-(2-(dimethylamino)ethoxy)-1,4-phenylene)bis(1H-benzo[d]imidazole-6,2-diyl))bis(oxy))bis(N,N-dimethylpropan-1-amine)]
4.26 | CN1CC[C@@H](Oc2ccc3nc(-c4ccc(-c5nc6ccc(O[C@@H]7CCN(C)C7)cc6[nH]5)cc4)[nH]c3c2)C1 [Compound 181]
< 3.70 | N#CCCCOc1ccc2nc(-c3ccc(-c4nc5ccc(OCCCC#N)cc5[nH]4)cc3)[nH]c2c1 [Compound 289]
4.60 | CN(C)CCCOc1ccc2nc(-c3ccc(-c4nc5ccc(C(=O)NCCN6CCCC6)cc5[nH]4)cc3)[nH]c2c1 [Compound 232, 2-(4-(6-(3-(dimethylamino)propoxy)-1H-benzo[d]imidazol-2-yl)phenyl)-N-(2-(pyrrolidin-1-yl)ethyl)-1H-benzo[d]imidazole-6-carboxamide]
4.48 | CN(C)CCSCCOc1ccc2nc(-c3ccc(-c4nc5ccc(OCCSCCN(C)C)cc5[nH]4)cc3)[nH]c2c1 [Compound 210]
< 3.70 | CN(C)CCNC(=O)c1ccc(-c2nc3cc(-c4ccc5[nH]c(-c6ccc(C(=O)O)cc6)nc5c4)ccc3[nH]2)cc1 [Compound 390, 4-(2′-(4-((2-(dimethylamino)ethyl)carbamoyl)phenyl)-3H,3′H-[5,5′-bibenzo[d]imidazol]-2-yl)benzoic acid]
3.81 | OCCCCOc1ccc2nc(-c3ccc(-c4nc5ccc(OCCCCO)cc5[nH]4)cc3)[nH]c2c1 [Compound 225]
5.08 | CN(C)CCCOc1ccc2nc(-c3cc(F)c(-c4nc5ccc(OCCCN(C)C)cc5[nH]4)cc3F)[nH]c2c1 [Compound 296]
< 3.70 | N#Cc1cccc(Oc2ccc3nc(-c4ccc(-c5nc6ccc(Oc7cccc(C#N)c7)cc6[nH]5)cc4)[nH]c3c2)c1 [Compound 230, 3,3′-((2,2′-(1,4-phenylene)bis(1H-benzo[d]imidazole-6,2-diyl))bis(oxy))dibenzonitrile]
3.75 | CN(C)C(C)(C)CCOc1ccc2nc(-c3ccc(-c4nc5ccc(OCCC(C)(C)N(C)C)cc5[nH]4)cc3)[nH]c2c1 [Compound 282, 4,4′-((1,4-phenylenebis(1H-benzo[d]imidazole-2,6-diyl))bis(oxy))bis(N,N,2-trimethylbutan-2-amine)]
3.99 | CN1CCC(Oc2ccc3nc(-c4ccc(-c5nc6ccc(OC7CCN(C)CC7)cc6[nH]5)cc4)[nH]c3c2)CC1 [Compound 208]
< 3.70 | CN(C)Cc1cccc(Oc2ccc3nc(-c4ccc(-c5nc6ccc(Oc7cccc(CN(C)C)c7)cc6[nH]5)cc4)[nH]c3c2)c1 [Compound 243]
5.46 | C[C@@H](NC(=O)CNCCNC(=O)c1ccc(-c2nc3cc(-c4ccc5[nH]c(-c6ccc(OCCCN(C)C)cc6)nc5c4)ccc3[nH]2)cc1)C(=O)N[C@H](C)C(=O)N[C@H](C)C(=O)N[C@H](C)C(=O)N(CCNC(=O)c1ccc(-c2nc3cc(-c4ccc5[nH]c(-c6ccc(OCCCN(C)C)cc6)nc5c4)ccc3[nH]2)cc1)CC(N)=O [Compound 448]
4.33 | CN(C)CCC#Cc1ccc(-c2nc3cc(-c4ccc5[nH]c(-c6ccc(C#CCCN(C)C)cc6)nc5c4)ccc3[nH]2)cc1 [Compound 386]
5.48 | CN(C)CCNC(=O)c1ccc(-c2nc3cc(-c4ccc5[nH]c(-c6ccc(C(=O)NCCCNC(=O)c7ccc(-c8nc9cc(-c%10ccc%11[nH]c(-c%12ccc(C(=O)NCCN(C)C)cc%12)nc%11c%10)ccc9[nH]8)cc7)cc6)nc5c4)ccc3[nH]2)cc1 [Compound 413]

Compound | pIC50
CN(C)CCNC(=O)c1ccc(-c2nc3ccc(-c4ccc5nc(-c6ccc(C(=O)NCCOCCOCc7cn(CCCNCC(=O)N8CCCC8C(=O)N8CCC[C@H]8C(=O)N(CCCn8cc(COCCOCCNC(=O)c9ccc(-c%10nc%11ccc(-c%12ccc%13nc(-c%14ccc(C(=O)NCCN(C)C)cc%14)[nH]c%13c%12)cc%11[nH]%10)cc9)nn8)CC(N)=O)nn7)cc6)[nH]c5c4)cc3[nH]2)cc1 (stereo partly shown) [Compound 437] | 5.12
O=C(N[C@H]1CN2CCC1CC2)c1ccc(-c2nc3cc(-c4ccc5[nH]c(-c6ccc(C(=O)N[C@H]7CN8CCC7CC8)cc6)nc5c4)ccc3[nH]2)cc1 [Compound 342] | 5.36
